What was measured:
[1] = system: BT20 human breast cancer cells; assay: MTT cytotoxicity assay, BT20; format: cell-based; details: Homo sapiens, BT-20, Table 4, OH substituted, 24–36 hours
Protocol: (§1) The cytotoxicity assay of various compounds against human tumor cell lines was performed using the MTT (3-[4,5-dimethylthiazol-2-yl]-2,5-diphenyl tetrazolium bromide) assay (Boehringer Mannheim Corp., Indianapolis, Ind.). Briefly, exponentially growing tumor cells were seeded into a 96-well plate at a density of 2.5×10^4 cells/well and incubated for 36 hours at 37° C. prior to drug exposure. On the day of treatment, culture medium was carefully aspirated from the wells and replaced with fresh medium containing the quinazoline compounds at concentrations ranging from 0.1 to 250 μM. Triplicate wells were used for each treatment.
(§2) Human cell lines were obtained from American Type Culture Collection (Rockville, Md.) and maintained as a continuous cell line in Dulbecco's modified Eagles' medium supplemented with 10% fetal bovine serum and antibiotics. Cells used in this study include human leukemia cells (NALM-6 and MOLT-3), human breast cancer cells ([…]), human prostate cancer cells (PC3), and human brain tumor cells (U373).
(§3) The cells were incubated with the various compounds for 24–36 hours at 37° C. in a humidified 5% CO2 atmosphere. To each well, 10 μl of MTT (0.5 mg/ml final concentration) was added and the plates were incubated at 37° C. for 4 hours to allow MTT to form formazan crystals by reacting with metabolically active cells. The formazan crystals were solubilized overnight at 37° C. in a solution containing 10% SDS in 0.01 M HCl. The absorbance of each well was measured in a microplate reader (Labsystems) at 540 nm and a reference wavelength of 690 nm. To translate the OD 540 values into the number of live cells in each well, the OD 540 values were compared to those on standard OD 540—versus—cell number curves generated for each cell line. The percent survival was calculated using the formula:
(§4) [formula] The IC50 values were calculated by non-linear regression analysis. Detection of Apoptosis

mice = assay: Single bolus dose toxicity in mice; format: in vivo
Protocol: (§5) HI-P131 was not toxic to mice at intraperitoneal single bolus doses ranging from 0.5 mg/kg to 250 mg/kg. […] Thus, the maximum tolerated dose (MlD) of HI-P131 was not reached at 250 mg/kg. We next examined the pharmacokinetic features of HI-P131 in mice. A two-compartment pharmacokinetic model was fit to the pharmacokinetics data obtained following the intravenous (i.v.) or intraperitoneal (i.p.) administration of a single non-toxic 12.5 mg/kg bolus dose of HI-P131.

[2] = Single bolus dose toxicity in mice; format: in vivo; details: mouse, in vivo, ip
Protocol: as §5

[3] = system: NALM-6 human leukemia cells; assay: MTT cytotoxicity assay, NALM-6; format: cell-based; details: Homo sapiens, NALM-6, Table 4, OH substituted, 24–36 hours
Protocol: as §1, §2, §3, §4

[4] = system: U373 human brain tumor cells; assay: MTT cytotoxicity assay, U373; format: cell-based; details: Homo sapiens, U373 MG, Table 4, OH substituted, 24–36 hours
Protocol: as §1, §2, §3, §4

[5] = system: MOLT-3 human leukemia cells; assay: MTT cytotoxicity assay, MOLT-3; format: cell-based; details: Homo sapiens, MOLT-3, Table 4, OH substituted, 24–36 hours
Protocol: as §1, §2, §3, §4

[6] = Pharmacokinetic study in mice; format: in vivo; details: mouse, plasma, iv, single 12.5 mg/kg bolus, two-compartment model, read-out: Estimated maximum plasma concentration (Cmax)
Protocol: In pharmacokinetic studies, mice were injected either intravenously (i.v.) via the tail vein or intraperitoneally (i.p.) with a bolus dose of 300 μg/mouse (˜12.5 mg/kg=34 μmols/kg) of HI-P131. Blood samples were obtained from the ocular venous plexus by retroorbital venupuncture prior to and at 3 minutes, 5 minutes, 10 minutes, 15 minutes, 30 minutes, 45 minutes and 1 hour, 2 hours, 4 hours, and 8 hours after administration of HI-P 131. All collected blood samples were heparinized and centrifuged at 7,000 xg for 10 minutes in a microcentrifuge to obtain plasma. The plasma samples were stored at −20° C. until analysis. Aliquots of plasma were used for extraction and HPLC analysis. […] The area under the concentration time curve (AUC) was calculated by the trapezoidal rule between first (0 h) and last sampling time plus C/k, where C is the concentration of last sampling and k is the elimination rate constant. Systemic clearance (CL) was determined by dividing the dose by the AUC. The apparent volume of distribution at steady-state was calculated using the following equation, Vss=Dose·AUMC/(AUC)^2. […]
A highly sensitive quantitative HPLC detection method (Chen et al., 1998, J. Chromatography B (Biomedical sciences), in press) was used to determine the pharmocokinetics of HI-P131. […]

In the case of COc1cc2ncnc(Nc3ccc(O)cc3)c2cc1OC [HI-P131, 4-(4′-Hydroxylphenyl)-amino-6,7-dimethoxyquinazoline], the IC50 [1] is reported as greater than 250 µM, the “Side effects or death of toxicity” value (mice; 50 mice, 30 day observation period) is reported as “None of the 50 mice treated with HI-P131 experienced side effects or died of toxicity” and the “Histopathologic lesions in organs” value (mice; mouse, in vivo) is reported as “No histopathologic lesions”. The Toxicity to mice (mice; mouse, in vivo) was “not toxic”, the MTD at 30 day [2] was greater than 250 mg/kg and the IC50 [3] was 32.1 µM. For the same compound, the IC50 [4] was greater than 250 µM, the IC50 [5] was 38.6 µM and the Cmax [6] was 85.6 µM.

— US7038049B2, “Haloanilino quinazolines and therapeutic use thereof” (Parker Hughes Institute, priority 1999, dated 2006)
